Measurements from patent US8067424B2, “Selective inhibitors for cyclin-dependent kinases” (Emory University, priority 2007, dated 2011).
Like-named read-outs stand apart in the source and are kept apart here.

Key:
[1] = molecular target: AURORA B (Homo sapiens, UniProt Q96GD4); assay: Kinase screen: Aurora B assay; format: biochemical; settings: read-out: Mean Remaining Enzyme Activity (%)
Protocol: Generally, the same procedure was used for all assays. Since the total assay volume was 25.5 microliters, 0.5 microliters of inhibitors at 51× assay concentration were added to the plates before any other addition.
The basic procedure was to add 0.5 microliters inhibitor/control in DMSO to plate. Fifteen microliters of enzyme/substrate/buffer mix were added and incubated for 5 min. Ten microliters MgATP at the relevant concentration were added and incubated for 30 min. The assay was stopped by adding 5 microliters of 3% orthophosphoric acid. The assay was transferred to a p81 filter plate and read in a scintillation counter of 30 sec/well. Note that this assay procedure was not followed for MKK1, which instead involved a two-step assay, and PKC alpha, which required the addition of lipid vesicles.
Aurora B assay: Aurora B (5-20 mU diluted in 50 mM Tris pH 7.5, 0.1 mM EGTA, 0.1% b-mercaptoethanol, 1 mg/ml BSA) was assayed against a substrate peptide ([…]) (SEQ ID NO: 26) in a final volume of […] containing 50 mM Tris pH 7.5, 0.05% b-mercaptoethanol, 300 μM substrate peptide, 10 mM magnesium acetate and 0.02 mM [33P-g-ATP] (50-1000 cpm/pmole) and incubated for 30 min at room temperature. Assays were stopped by addition of 5 μl of 0.5 M (3%) orthophosphoric acid and then harvested onto P81 Unifilter plates with a wash buffer of 50 mM orthophosphoric acid.

[2] = test system: K-562
[3] = test system: NCI-H226
[4] = test system: HT29
[5] = test system: SF-268
[6] = test system: LOX IMVI; settings: for Mean Optical Densities / Percent Growth: LOX IMVI
[7] = test system: SK-MEL-28
[8] = test system: SK-OV-3
[9] = test system: A498
[10] = test system: MCF7
[11] = test system: HCT-15; assay: cells; settings: Homo sapiens
[12] = test system: MALME-3M; assay: cells; settings: Homo sapiens
[13] = test system: IGROV1; assay: cells; settings: Homo sapiens
[14] = test system: NCI/ADR-RES; assay: cells; settings: Homo sapiens
[15] = test system: BT-549; assay: cells; settings: Homo sapiens
[16] = K-562, log10 concentration −4.0
[17] = K-562, log10 concentration −5.0
[18] = K-562, log10 concentration −6.0
[19] = K-562, log10 concentration −7.0
[20] = K-562, log10 concentration −8.0
[21] = NCI-H226, log10 concentration −4.0
[22] = NCI-H226, log10 concentration −5.0
[23] = NCI-H226, log10 concentration −6.0
[24] = NCI-H226, log10 concentration −7.0
[25] = NCI-H226, log10 concentration −8.0
[26] = SF-268, log10 concentration −4.0
[27] = SF-268, log10 concentration −5.0
[28] = SF-268, log10 concentration −6.0
[29] = SF-268, log10 concentration −7.0
[30] = SF-268, log10 concentration −8.0
[31] = SK-MEL-28, log10 concentration −4.0
[32] = SK-MEL-28, log10 concentration −5.0
[33] = SK-MEL-28, log10 concentration −6.0
[34] = SK-MEL-28, log10 concentration −7.0
[35] = SK-MEL-28, log10 concentration −8.0
[36] = SK-OV-3, log10 concentration −4.0
[37] = SK-OV-3, log10 concentration −5.0
[38] = SK-OV-3, log10 concentration −6.0
[39] = SK-OV-3, log10 concentration −7.0
[40] = SK-OV-3, log10 concentration −8.0

Chain of AURORA B (Q96GD4 whole entry): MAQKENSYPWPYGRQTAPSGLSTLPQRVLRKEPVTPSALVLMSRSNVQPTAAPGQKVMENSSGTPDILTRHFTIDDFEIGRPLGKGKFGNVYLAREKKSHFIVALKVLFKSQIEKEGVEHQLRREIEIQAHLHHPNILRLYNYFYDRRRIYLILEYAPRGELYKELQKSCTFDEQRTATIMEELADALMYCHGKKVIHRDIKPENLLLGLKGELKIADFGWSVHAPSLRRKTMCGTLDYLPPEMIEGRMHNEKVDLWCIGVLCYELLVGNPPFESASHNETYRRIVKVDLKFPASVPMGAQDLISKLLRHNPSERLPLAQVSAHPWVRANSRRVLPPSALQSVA

CC(C)c1cnn2c(NCc3ccccc3)cc(NCCCCCCCN)nc12 [BS-181]
remaining activity at 10 µM [1]: 95%

CC(C)c1cnn2c(NCc3ccccc3)cc(N[C@@H](CO)[C@H](O)CO)nc12 [ICEC0318, (3S)-3-(7-(Benzylamino)-3-isopropylpyrazolo[1,5-a]pyrimidin-5-ylamino)butane-1,2,4-triol]
TGI ([2]; K-562 (Leukemia)): >1.00E−4
Mean Optical Densities [2, 16]: 0.341
Percent Growth [2, 16]: 17%
Mean Optical Densities [2, 17]: 0.325
Percent Growth [2, 17]: 15%
Mean Optical Densities [2, 18]: 0.334
Percent Growth [2, 18]: 16%
Mean Optical Densities [2, 19]: 0.991
Percent Growth [2, 19]: 79%
Mean Optical Densities [2, 20]: 1.064
Percent Growth [2, 20]: 86%
Mean Optical Densities [3, 21]: 0.725
Percent Growth [3, 21]: 4%
Mean Optical Densities [3, 22]: 0.613
Percent Growth [3, 22]: −9%
Mean Optical Densities [3, 23]: 0.662
Percent Growth [3, 23]: −1%
Mean Optical Densities [3, 24]: 1.920
Percent Growth [3, 24]: 89%
Mean Optical Densities [3, 25]: 2.076
Percent Growth [3, 25]: 101%
TGI ([4]; HT29 (Colon Cancer)): 3.66E−5
Mean Optical Densities ([4]; HT29, log10 concentration −4.0): 0.190
Percent Growth ([4]; HT29, log10 concentration −4.0): −2%
Mean Optical Densities ([4]; HT29, log10 concentration −5.0): 0.216
Percent Growth ([4]; HT29, log10 concentration −5.0): 2%
Mean Optical Densities ([4]; HT29, log10 concentration −6.0): 0.247
Percent Growth ([4]; HT29, log10 concentration −6.0): 5%
Mean Optical Densities ([4]; HT29, log10 concentration −7.0): 1.345
Percent Growth ([4]; HT29, log10 concentration −7.0): 100%
Mean Optical Densities ([4]; HT29, log10 concentration −8.0): 1.394
Percent Growth ([4]; HT29, log10 concentration −8.0): 105%
TGI ([5]; SF-268 (CNS Cancer)): 3.12E−5
Mean Optical Densities [5, 26]: 0.404
Percent Growth [5, 26]: −5%
Mean Optical Densities [5, 27]: 0.460
Percent Growth [5, 27]: 5%
Mean Optical Densities [5, 28]: 0.452
Percent Growth [5, 28]: 4%
Mean Optical Densities [5, 29]: 1.234
Percent Growth [5, 29]: 99%
Mean Optical Densities [5, 30]: 1.291
Percent Growth [5, 30]: 106%
TGI ([6]; LOX IMVI (Melanoma)): 1.46E−5
Mean Optical Densities ([6]; log10 concentration −4.0): 0.224
Percent Growth ([6]; log10 concentration −4.0): −19%
Mean Optical Densities ([6]; log10 concentration −5.0): 0.328
Percent Growth ([6]; log10 concentration −5.0): 4%
Mean Optical Densities ([6]; log10 concentration −6.0): 0.326
Percent Growth ([6]; log10 concentration −6.0): 4%
Mean Optical Densities ([6]; log10 concentration −7.0): 1.208
Percent Growth ([6]; log10 concentration −7.0): 64%
Mean Optical Densities ([6]; log10 concentration −8.0): 1.614
Percent Growth ([6]; log10 concentration −8.0): 92%
TGI ([7]; SK-MEL-28 (Melanoma)): 8.70E−7
Mean Optical Densities [7, 31]: 0.114
Percent Growth [7, 31]: −62%
Mean Optical Densities [7, 32]: 0.198
Percent Growth [7, 32]: −34%
Mean Optical Densities [7, 33]: 0.284
Percent Growth [7, 33]: −6%
Mean Optical Densities [7, 34]: 0.733
Percent Growth [7, 34]: 85%
Mean Optical Densities [7, 35]: 0.816
Percent Growth [7, 35]: 102%
TGI ([8]; SK-OV-3 (Ovarian Cancer)): >1.00E−4
Mean Optical Densities [8, 36]: 0.799
Percent Growth [8, 36]: 9%
Mean Optical Densities [8, 37]: 0.860
Percent Growth [8, 37]: 17%
Mean Optical Densities [8, 38]: 0.903
Percent Growth [8, 38]: 23%
Mean Optical Densities [8, 39]: 1.701
Percent Growth [8, 39]: 132%
Mean Optical Densities [8, 40]: 1.504
Percent Growth [8, 40]: 105%
TGI ([9]; A498 (Renal Cancer)): 4.83E−7
Mean Optical Densities ([9]; A498, log10 concentration −4.0): 0.386
Percent Growth ([9]; A498, log10 concentration −4.0): −54%
Mean Optical Densities ([9]; A498, log10 concentration −5.0): 0.365
Percent Growth ([9]; A498, log10 concentration −5.0): −56%
Mean Optical Densities ([9]; A498, log10 concentration −6.0): 0.414
Percent Growth ([9]; A498, log10 concentration −6.0): −50%
Mean Optical Densities ([9]; A498, log10 concentration −7.0): 1.321
Percent Growth ([9]; A498, log10 concentration −7.0): 109%
Mean Optical Densities ([9]; A498, log10 concentration −8.0): 1.280
Percent Growth ([9]; A498, log10 concentration −8.0): 100%
TGI ([10]; MCF7 (Breast Cancer)): >1.00E−4
Mean Optical Densities ([10]; MCF7, log10 concentration −4.0): 0.229
Percent Growth ([10]; MCF7, log10 concentration −4.0): 6%
Mean Optical Densities ([10]; MCF7, log10 concentration −5.0): 0.237
Percent Growth ([10]; MCF7, log10 concentration −5.0): 7%
Mean Optical Densities ([10]; MCF7, log10 concentration −6.0): 0.244
Percent Growth ([10]; MCF7, log10 concentration −6.0): 7%
Mean Optical Densities ([10]; MCF7, log10 concentration −7.0): 0.805
Percent Growth ([10]; MCF7, log10 concentration −7.0): 72%
Mean Optical Densities ([10]; MCF7, log10 concentration −8.0): 1.098
Percent Growth ([10]; MCF7, log10 concentration −8.0): 107%
GI50 ([11]; HCT-15): 0.377 µM
CC50 ([11]; HCT-15, read-out: LC50): > 100 µM
GI50 [12]: 0.404 µM
CC50 ([12]; read-out: LC50): > 100 µM
GI50 ([13]; IGROV-1): 0.21 µM
CC50 ([13]; IGROV-1, read-out: LC50): > 100 µM
GI50 [14]: 2.04 µM
CC50 ([14]; read-out: LC50): > 100 µM
GI50 ([15]; BT-549): 0.258 µM
CC50 ([15]; BT-549, read-out: LC50): > 100 µM
